Measured values from patent EP0785195A1, “Piperidine or tetrahydropyridine derivatives having affinity for the serotonin 5-HTIA receptor” (AMERICAN HOME FOOD PRODUCTS, INC., priority 1996, dated 1997).

Target: T1, 5-HT1A serotonin receptor (Rattus norvegicus, UniProt P19327)
T1 construct: from tissue; host or cells: rat brain membranes (inferred from the cited Hall et al. procedure)
T1 sequence (P19327 1-422): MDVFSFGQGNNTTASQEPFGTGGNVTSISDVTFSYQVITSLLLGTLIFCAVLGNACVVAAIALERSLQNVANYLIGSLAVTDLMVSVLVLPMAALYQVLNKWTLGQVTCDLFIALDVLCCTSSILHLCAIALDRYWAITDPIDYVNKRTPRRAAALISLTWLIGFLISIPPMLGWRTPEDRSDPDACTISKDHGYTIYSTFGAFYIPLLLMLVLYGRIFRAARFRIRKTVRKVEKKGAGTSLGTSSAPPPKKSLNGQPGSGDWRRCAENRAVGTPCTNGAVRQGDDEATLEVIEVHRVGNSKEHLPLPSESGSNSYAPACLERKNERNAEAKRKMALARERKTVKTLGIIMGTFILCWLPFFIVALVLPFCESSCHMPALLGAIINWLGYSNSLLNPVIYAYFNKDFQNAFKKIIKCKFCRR
Assay: displacement of [3H] 8-OHDPAT from the 5-HT1A serotonin receptor (procedure of Hall et al.)
Assay type: binding
From the text: 8-OHDPAT (dipropylaminotetralin) from the 5-HT1A serotonin receptor following the procedure of Hall et al., J. Neurochem. 44, 1685 (1985).

Compound	IC50
C[C@H](CN1CC=C(c2cccc3[nH]ccc23)CC1)Nc1ccccn1 [Example 1, {(R)-2-[4-(1H-Indol-4-yl)-(1,2,3,6-tetrahydro-pyridin-1-yl)]-1-methyl-ethyl}-(pyridin-2-yl)-amine]	11.6 nM
C[C@H](CN1CC=C(c2cccc3[nH]ccc23)CC1)N(C(=O)C1CCCCC1)c1ccccn1 [Example 2]	1.7 nM
